Values after ≈ are worked out from the molar mass of the structure shown. Read-outs that look alike come from different tables or passages of the source.
Columns and labels:
Clostridium difficile = experiment: Broth microdilution MIC against Clostridium difficile strains; assay type: cell-based; settings: Clostridioides difficile
Experimental: The broth microdilution assay was utilized following the Clinical and Laboratory Standards Institute (CLSI) guidelines with slight modifications. Briefly, C. difficile strains were grown on anaerobic blood agar plates (Becton Dickinson, BD) and suspended in brain heart infusion supplemented broth (Brain heart infusion medium, BD, supplemented with yeast extract, L-cysteine, Vitamin K1 and Hemin, Sigma) to achieve a bacterial concentration of ~10^5 CFU/ml. The bacterial suspension was seeded in 96-well plates containing drugs/compounds, in duplicate, at the required concentration. Plates were then incubated at 37 °C anaerobically for 48 hours. MICs reported are the lowest concentration of each agent that inhibited the visual growth of bacteria.

E. faecalis = experiment: Broth microdilution MIC against E. faecalis strains; assay type: cell-based; settings: Enterococcus faecalis, read-out: Minimum inhibitory concentration
E. faecium = experiment: Broth microdilution MIC against E. faecium strains; assay type: cell-based; settings: Enterococcus faecium, read-out: Minimum inhibitory concentration
[1] = tested on: human ileocecal colorectal adenocarcinoma cell line (HRT-18); experiment: Cytotoxicity, MTS assay, HRT-18 cells; assay type: cell-based; settings: 32 µg mL^−1, 2 hours
Experimental: Briefly, ~2 × 10^4 cells suspended in 100 µL of RPMI-1640 supplemented with 10% horse serum were seeded in a 96-well plate and incubated at 37 °C with 5% CO2. The cells were cultured for 24 hours until reaching ~90% confluency. The cells were further incubated with the aforementioned concentrations of the compounds for 2 hours. Afterwards, culture media were discarded and the cells in each well were washed with PBS and 100 µL of cell culture media were added prior to addition of the assay reagent MTS 3-(4,5-dimethylthiazol-2-yl)-5-(3-carboxymethoxyphenyl)-2-(4-sulfophenyl)-2H-tetrazolium) (Promega). The plates were incubated for 4 hours at 37 °C in a humidified 5% CO2 atmosphere. The absorbance was recorded at 490 nm and the corrected absorbance readings (actual absorbance readings for each treatment subtracted from background absorbance) were taken using a kinetic ELISA microplate reader (SpectraMax i3x, Molecular Devices, Sunnyvale, CA, USA). The quantity of viable cells after treatment with each compound was expressed as a percentage of the control, DMSO. Asterisk (*) denotes a significant difference from the DMSO-treated cells using 2-way analysis of variance (ANOVA) followed by Dunnett’s pairwise comparison.

[2] = Caco-2 bidirectional permeability assay; assay type: in vitro ADME, human; settings: human, Caco-2, two hours
Experimental: (§1) The Caco-2 bidirectional permeability assay was conducted as described in previous reports[29],[30],[41],[42]. The Caco-2 cell line is similar to human enterocytes and expresses P-glycoprotein and other relevant metabolic enzymes that affect absorption of orally-administered xenobiotics across the intestinal mucosa[34],[43],[44]. Caco-2 cells were grown in tissue culture flasks, trypsinized (by rinsing cells with phosphate-buffered saline and then treating with trypsin-EDTA for 5–10 minutes at 37 °C with 5% CO2 until cells detached), suspended in Dulbecco’s Modified Eagle Medium with 10% fetal bovine serum, 1% nonessential amino acids and penicillin-streptomycin, and then seeded onto wells of a Millipore 96-well Caco-2 plate. Cells were cultured at 37 °C with 5% CO2 until confluent (approximately three weeks) and media was changed at relevant time points. For Apical to Basolateral (A → B) permeability, the test article was added to the apical (A) compartment and the amount of permeation (Papp, as calculated below) to the basolateral (B) compartment was determined; for Basolateral to Apical (B → A) permeability, the test article was added to the B compartment and the amount of permeation to the A compartment was determined. […] Caco-2 cells were incubated with these buffers for two hours, and the receiver side buffer was removed for analysis by LC/MS/MS. To verify the tight junctions and integrity of Caco-2 cell monolayers, aliquots of the cell buffers were analyzed by fluorescence (Lucifer yellow transport ≤ 2%). Any deviations from control values are reported. Data are expressed as permeability (Papp) = (dQ/dt)/(C0A) where dQ/dt is the rate of permeation, C0 is the initial concentration of test agent, and A is the area of the monolayer.

Caco-2 monolayer = experiment: Caco-2 bidirectional permeability assay; assay type: in vitro ADME, human; settings: Caco-2 bidirectional
Experimental: as §1

[3] = tested on: vancomycin-resistant and vancomycin-susceptible strains of Enterococcus; experiment: Broth microdilution MIC against Enterococcus strains (E. faecalis and E. faecium, summary in text); assay type: cell-based; settings: all E. faecalis and E. faecium strains tested, vancomycin-resistant and -sensitive
human erythrocytes = tested on: human erythrocytes; design: method as in PMID 24479371; settings: concentration at which 50% of human erythrocytes are lysed; cited from earlier work
[4] = C. difficile Isolate 1 (NR-13427), read-out: Minimum inhibitory concentration
[5] = C. difficile Isolate 2 (NR-13428), read-out: Minimum inhibitory concentration
[6] = C. difficile Isolate 4 (NR-13430), read-out: Minimum inhibitory concentration
[7] = C. difficile Isolate 6 (NR-13432), read-out: Minimum inhibitory concentration
[8] = C. difficile Isolate 9 (NR-13435), read-out: Minimum inhibitory concentration
[9] = C. difficile Isolate 10 (NR-13436), read-out: Minimum inhibitory concentration
[10] = C. difficile P2 (NR-32883), read-out: Minimum inhibitory concentration
[11] = C. difficile P4 (NR-32889), read-out: Minimum inhibitory concentration
[12] = C. difficile P8 (NR-32888), read-out: Minimum inhibitory concentration
[13] = C. difficile P13 (NR-32891), read-out: Minimum inhibitory concentration
[14] = C. difficile P20 (NR-32896), read-out: Minimum inhibitory concentration
[15] = C. difficile P21 (NR-32897), read-out: Minimum inhibitory concentration
[16] = C. difficile P29 (NR-32903), read-out: Minimum inhibitory concentration
[17] = across all tested strains of C. difficile
[18] = E. faecalis SF28073 (vancomycin-resistant)
[19] = E. faecium E417 (vancomycin-resistant)

Structure (SMILES)	MIC (Clostridium difficile; [4])	MIC (Clostridium difficile; [5])	MIC (Clostridium difficile; [6])	MIC (Clostridium difficile; [7])	MIC (Clostridium difficile; [8])	MIC (Clostridium difficile; [9])	MIC (Clostridium difficile; [10])	MIC (Clostridium difficile; [11])	MIC (Clostridium difficile; [12])	MIC (Clostridium difficile; [13])	MIC (Clostridium difficile; [14])	MIC (Clostridium difficile; [15])	MIC (Clostridium difficile; [16])	MIC (Clostridium difficile; [17])	MIC (E. faecalis; E. faecalis B3196)	MIC (E. faecalis; E. faecalis B3286)	MIC (E. faecalis; E. faecalis B3336)	MIC (E. faecalis; E. faecalis SF24397)	MIC (E. faecalis; [18])	MIC (E. faecium; [19])	further results
CCCCCCCCCCN(Cc1cccc2ccccc12)C(=O)[C@@H](N)CCCCN [NCK-10]	2 µg/mL (≈ 4.7 µM)	1 µg/mL (≈ 2.35 µM)	2 µg/mL (≈ 4.7 µM)	1 µg/mL (≈ 2.35 µM)	1 µg/mL (≈ 2.35 µM)	1 µg/mL (≈ 2.35 µM)	1 µg/mL (≈ 2.35 µM)	2 µg/mL (≈ 4.7 µM)	1 µg/mL (≈ 2.35 µM)	2 µg/mL (≈ 4.7 µM)	1 µg/mL (≈ 2.35 µM)	1 µg/mL (≈ 2.35 µM)	1 µg/mL (≈ 2.35 µM)	0.5 to 2 µg/mL (≈ 1.17 to 4.7 µM)	2 µg/mL (≈ 4.7 µM)	2 µg/mL (≈ 4.7 µM)	2 µg/mL (≈ 4.7 µM)	2 µg/mL (≈ 4.7 µM)	2 µg/mL (≈ 4.7 µM)	< 1 µg/mL	MIC (Clostridium difficile; C. difficile strains P8, P13 and Isolate 10): 1 to 2 µg/mL (≈ 2.35 to 4.7 µM); MIC (Clostridium difficile; most strains of C. difficile tested, read-out: MIC): ≤ 1 µg/mL; MIC (Clostridium difficile; read-out: Minimum inhibitory concentration, C. difficile Isolate 5 (NR-13431)): ≤ 0.5 µg/mL; MIC (Clostridium difficile; read-out: Minimum inhibitory concentration, C. difficile P15 (NR-32892)): ≤ 0.5 µg/mL; MIC (Clostridium difficile; the rest of the C. difficile strains): 1 µg/mL (≈ 2.35 µM); MIC (E. faecium; E. faecium E1071): 2 µg/mL (≈ 4.7 µM); MIC (E. faecium; E. faecium UAA714): 2 µg/mL (≈ 4.7 µM); cells survived ([1]; HRT-18 cells, relative to DMSO): 60%; Papp A→B at 2 h ([2]; apical (pH 6.5) to basolateral (pH 7.4)): < 0.01 ×10⁻⁶ cm/s; Papp B→A at 2 h ([2]; basolateral to apical): 3.26 ×10⁻⁶ cm/s; Notes (permeability class) (Caco-2 monolayer): Limited permeability; MIC [3]: ≤ 2 µg/mL; hemolytic concentration 50 (HC50) (human erythrocytes): 95 µg/mL
CCCCCCCCCCCCN(Cc1cccc2ccccc12)C(=O)[C@@H](N)CCCCN [NCK-12]	4 µg/mL (≈ 8.82 µM)	2 µg/mL (≈ 4.41 µM)	2 µg/mL (≈ 4.41 µM)	2 µg/mL (≈ 4.41 µM)	2 µg/mL (≈ 4.41 µM)	2 µg/mL (≈ 4.41 µM)	1 µg/mL (≈ 2.2 µM)	4 µg/mL (≈ 8.82 µM)	4 µg/mL (≈ 8.82 µM)	2 µg/mL (≈ 4.41 µM)	2 µg/mL (≈ 4.41 µM)	2 µg/mL (≈ 4.41 µM)	2 µg/mL (≈ 4.41 µM)	1 to 4 µg/mL (≈ 2.2 to 8.82 µM)	4 µg/mL (≈ 8.82 µM)	8 µg/mL (≈ 17.6 µM)	8 µg/mL (≈ 17.6 µM)	8 µg/mL (≈ 17.6 µM)	4 µg/mL (≈ 8.82 µM)	4 µg/mL (≈ 8.82 µM)	MIC (Clostridium difficile; C. difficile Isolate 5 (NR-13431), read-out: Minimum inhibitory concentration): 1 µg/mL (≈ 2.2 µM); MIC (Clostridium difficile; C. difficile P15 (NR-32892), read-out: Minimum inhibitory concentration): 2 µg/mL (≈ 4.41 µM); MIC (E. faecium; E. faecium E1071): 8 µg/mL (≈ 17.6 µM); MIC (E. faecium; E. faecium UAA714): 8 µg/mL (≈ 17.6 µM); toxicity to HRT-18 cells [1]: survived; MIC [3]: 4 to 8 µg/mL (≈ 8.82 to 17.6 µM)

Reference: paper PMC7101335, “Aryl-alkyl-lysines: Novel agents for treatment of C. difficile infection” (Scientific Reports, 2020)
